Reference: PubChem BioAssay (NCI)
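Growth conditions: 96-well plates. Treatment: test compound, 48 hours, 5 concentrations. Analysis: linear interpolation between bracketing concentrations; unreached endpoints set to highest concentration. GI50 marks 50% less growth. TGI marks complete inhibition of growth.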

Key:
Assay in all cases: NCI tumour cell line growth inhibition, 48 h
KM20L2 colon = test system: KM20L2 colon
LXFL 529 NSCLC = test system: LXFL 529 NSCLC
XF 498 CNS = test system: XF 498 CNS
DMS 273 small cell lung = test system: DMS 273 small cell lung
M19-MEL melanoma = test system: M19-MEL melanoma
SNB-78 CNS = test system: SNB-78 CNS
HOP-18 NSCLC = test system: HOP-18 NSCLC
RXF-631 renal = test system: RXF-631 renal
MDA-N = test system: MDA-N

| Compound | TGI (KM20L2 colon) [µM] | TGI (LXFL 529 NSCLC) [µM] | TGI (XF 498 CNS) [µM] | TGI (DMS 273 small cell lung) [µM] | TGI (M19-MEL melanoma) [µM] | TGI (SNB-78 CNS) [µM] | TGI (HOP-18 NSCLC) [µM] | TGI (RXF-631 renal) [µM] | TGI (MDA-N) [µM] | GI50 (HOP-18 NSCLC) [µM] | GI50 (KM20L2 colon) [µM] | GI50 (LXFL 529 NSCLC) [µM] | GI50 (M19-MEL melanoma) [µM] |
| --- | --- | --- | --- | --- | --- | --- | --- | --- | --- | --- | --- | --- | --- |
| Cc1[nH]c2cc([N+](=O)[O-])ccc2c1[N+](=O)[O-] | > 100 | 48.3 | 50 |  |  |  |  |  |  |  |  |  |  |
| CN1CCN(c2nc(N)c(Br)c(Cl)n2)CC1 | > 100 | > 100 | > 100 | > 100 | > 100 | > 100 |  |  |  |  |  |  |  |
| O=C(CCc1ccccc1)CC1OC(=O)C(Cl)=C1Cl (stereo unspecified) | 26.5 | 29.4 | 41.4 | 44 | 33.8 | > 100 | 59.6 |  |  |  |  |  |  |
| CC(=O)Nc1ccc(/C=c2\sc3nnc(-c4cccnc4)n3c2=O)cc1 | 38.6 | 30.8 |  | 68.5 | 37.4 | > 100 | 55.6 | 55.2 |  |  |  |  |  |
| CSc1nc(SC)c2c(C)cn(COCCOC(=O)c3ccccc3)c2n1 |  |  |  |  |  |  |  |  | > 100 |  |  |  |  |
| Cc1ccc(S(=O)(=O)C2CC2(Cl)Cl)cc1 (stereo unspecified) | > 100 | 34 | 45.2 | > 100 | 67.7 |  |  | 50.8 |  |  |  |  |  |
| COc1ccc(/C=C/c2ccnc3ccccc23)cc1OC |  |  |  |  |  |  |  |  | 27 |  |  |  |  |
| CC(=O)CC(=O)Nc1ccccc1C(F)(F)F | > 100 | > 100 | > 100 |  | > 100 | > 100 |  | > 100 |  |  |  |  |  |
| NS(=O)(=O)c1ccc(N=Nc2c[nH]c(=O)c(O)c2)cc1 |  |  |  |  |  |  |  |  | > 100 |  |  |  |  |
| COc1ccc2c(c1)[n+]([O-])c(-c1ccccc1Cl)c(N)[n+]2[O-] | > 100 | > 100 |  | > 100 | > 100 | > 100 | > 100 | > 100 |  |  |  |  |  |
| O=C(N/C(=C\c1ccc(/C=C(\NC(=O)c2ccccc2)c2nc3c(O)nc(S)nc3[nH]2)cc1)c1nc2c(O)nc(S)nc2[nH]1)c1ccccc1 | > 100 | > 100 | > 100 | > 100 |  | > 100 | > 100 | > 100 |  |  |  |  |  |
| NC(=O)c1ncn(C2OC(CO)C(O)C2O)c1O (stereo unspecified) | > 100 | > 100 | > 100 |  | > 100 | > 100 | > 100 | > 100 |  |  |  |  |  |
| N#Cc1ccc(C2SCc3nc4ccccc4n32)cc1 (stereo unspecified) | > 100 | > 100 | > 100 | > 100 | > 100 | > 100 | > 100 |  |  |  |  |  |  |
| CSc1nnc(C(C#N)C#N)nn1 | > 100 | > 100 | > 100 | > 100 | > 100 | > 100 |  | > 100 |  |  |  |  |  |
| CC1=C2C=CC(=O)C[C@@]2(C)CCC1 |  | > 100 | > 100 | > 100 | > 100 | > 100 |  | > 100 |  |  |  |  |  |
| Cc1ccc(Nc2nc(-c3ccc(-c4ccc([N+](=O)[O-])cc4)o3)cs2)cc1 | > 100 | > 100 |  | > 100 | > 100 | > 100 |  |  |  |  |  |  |  |
| COC(=O)[C@@]12C3=NO[C@]1(C(=O)OC)C(O[Si](C)(C)C(C)(C)C)[C@@H](OC(C)=O)[C@@H](OC(C)=O)[C@@H]2[C@@H](OCc1ccccc1)CC3 (stereo partly specified) | > 100 | > 100 | > 100 | > 100 | > 100 | > 100 | > 100 |  |  |  |  |  |  |
| Cc1ccc(S(=O)(=O)NNS(C)(=O)=O)cc1 | > 100 | > 100 |  | > 100 | > 100 |  |  |  |  |  |  |  |  |
| CCC(c1ccccc1)c1cc(C(C)(C)C)cc(C(C)(C)C)c1O (stereo unspecified) |  |  |  |  |  |  |  |  | 30.9 |  |  |  |  |
| CCN(CC)C(=S)SS(C)(=O)=O |  | 30 |  | 36 | 30.6 | 43.7 | > 100 |  |  |  |  |  |  |
| CC(=O)[CH-]C(=O)c1ccccc1.CC(=O)[CH-]C(=O)c1ccccc1.CC(=O)[CH-]C(=O)c1ccccc1.[Ga+3] | 42.6 | 24.8 |  |  | 30.5 |  | 61.5 |  |  | 18 | 18.5 | 12 | 13.4 |
| CC(=O)C1C(=O)C(=O)N(CCN2C(=O)C(=O)C(C(C)=O)C2=O)C1=O (stereo unspecified) | > 100 | > 100 | > 100 | > 100 | > 100 |  | > 100 | > 100 |  |  |  |  |  |
| CCOC(=O)C1C(=O)CC(=O)C2CCCCC21 (stereo unspecified) |  | > 100 | > 100 | > 100 |  | > 100 |  | > 100 |  |  |  |  |  |
| CC1(C)C(=O)/C=C\C(=O)C(C)(C)C(=O)/C=C\C(=O)C(C)(C)C2=CC=C(O2)C(C)(C)C(=O)/C=C\C1=O | 28.3 | 6.14 | 3.86 | 10.1 | 13.6 | 15.7 | 37.1 | > 52.7 | 19.1 |  |  |  |  |
| Cc1c(-c2ccccn2)ccc2ccccc12 |  |  |  |  |  |  |  |  | > 100 |  |  |  |  |
| CN(C)N=Nc1ccc(S(N)(=O)=O)cc1 | > 100 |  | > 100 | > 100 | > 100 |  | > 100 |  |  |  |  |  |  |
| COc1ccc(C(=O)C(C(=O)C(=O)NCCCNC(=O)C(=O)C(C(=O)c2ccc(OC)cc2)c2ccc(OC)cc2)c2ccc(OC)cc2)cc1 (stereo unspecified) | > 100 | > 100 | > 100 | > 100 |  | > 100 | > 100 |  |  |  |  |  |  |
| COC1/C(=C\C(C)=O)c2ccccc2N1C(C)=O (stereo unspecified) | > 100 | > 100 | > 100 | > 100 | > 100 |  | > 100 | > 100 |  |  |  |  |  |
| COc1ccc(C(O)c2ccccn2)cc1 (stereo unspecified) |  |  |  |  |  |  |  |  | > 100 |  |  |  |  |
| C=CCSC(C)=O |  |  |  |  |  |  |  |  | > 100 |  |  |  |  |
